# In article PMC12567141, “Design, Synthesis and Biological Evaluation of Pyrazolopyrimidine Derivatives as Aryl Hydrocarbon Receptor Antagonists for Colorectal Cancer Immunotherapy” (Pharmaceutics, 2025):
# Assays:
# [1] = system: AhR; assay: AhR antagonist screening using Tg(cyp1a:egfp) zebrafish; assay type: in vivo; parameters: key to AhR Antagonist Activity at 100 nM: - no inhibition; + weak; ++ mild; +++ moderate; ++++ high; +++++ very high
# Method: At 30 hpf, Tg(cyp1a:egfp) embryos were placed in a 2-mL screw-capped glass vial with five embryos per vial. Each vial contained 1 mL of E3 media (5 mM NaCl, 0.17 mM KCl, 0.33 mM CaCl2·2H2O and 0.4 mM MgCl2·6H2O, pH 7.2) and supplemented with 2 nM TCDD (1746-01-6; AccuStandard Inc., New Haven, NH, USA) dissolved in DMSO. The compounds were subsequently diluted and individually introduced into the vials, achieving a final concentration of 0.1% DMSO. The embryos were then incubated for 48 h and then embryonic EGFP expression was evaluated using a fluorescent stereomicroscope (SteREO Discovery V8; Zeiss, Oberkochen, BW, Germany). As a positive control, StemRegenin1 (72342, […] Technologies, Vancouver, BC, Canada) was employed.
# To evaluate AhR antagonistic activity, we conducted an AhR antagonist assay using transgenic zebrafish. Zebrafish have garnered significant attention as model organisms for drug discovery because they share metabolic pathways with mammals. […] Therefore, we synthesized more meta substituted phenyl derivatives. […] We also synthesized heteroaromatic derivatives including pyrimidine and pyridine at 5-position; however, their activities were decreased.
# [2] = system: PD-1 expression in Jurkat/PD-1 cells; assay: PD-1 expression by FACS in PHA-treated Jurkat/PD-1 cells; assay type: cell-based
# Method: For analysis of PD-1 expression in PD-1-overexpressing Jurkat T cells (Jurkat/PD-1 cells), Jurkat/PD-1 cells in 24-well plates were treated with 2 μg/mL Phytohaemagglutinin (PHA) and incubated with 5 and 10 μM 7k for 24 h. Cells were collected were stained with APC-conjugated PD-1 Ab at 4 °C for 30 min (BioLegend). After washing with FACS buffer (Biolegend) three times, the cells were analysed using Becton Dickinson LSRFortessa^TM and analyzed with FlowJo software. Isotype-matched monoclonal antibodies were used as controls. The data were analysed using Flowjo analysis software (FlowJo LLC, Ashland, OR, USA).
# [3] = biological target: AhR (Danio rerio, UniProt Q9YGV3); assay: IC50 determination, Cyp1a dual luciferase reporter assay in transfected COS-7 cells; assay type: cell-based; details: AhR2/ARNT-1c/Cyp1a-luciferase, TCDD 10 nM
# AhR (Danio rerio, UniProt Q9YGV3), sequence (Q9YGV3 1-1027): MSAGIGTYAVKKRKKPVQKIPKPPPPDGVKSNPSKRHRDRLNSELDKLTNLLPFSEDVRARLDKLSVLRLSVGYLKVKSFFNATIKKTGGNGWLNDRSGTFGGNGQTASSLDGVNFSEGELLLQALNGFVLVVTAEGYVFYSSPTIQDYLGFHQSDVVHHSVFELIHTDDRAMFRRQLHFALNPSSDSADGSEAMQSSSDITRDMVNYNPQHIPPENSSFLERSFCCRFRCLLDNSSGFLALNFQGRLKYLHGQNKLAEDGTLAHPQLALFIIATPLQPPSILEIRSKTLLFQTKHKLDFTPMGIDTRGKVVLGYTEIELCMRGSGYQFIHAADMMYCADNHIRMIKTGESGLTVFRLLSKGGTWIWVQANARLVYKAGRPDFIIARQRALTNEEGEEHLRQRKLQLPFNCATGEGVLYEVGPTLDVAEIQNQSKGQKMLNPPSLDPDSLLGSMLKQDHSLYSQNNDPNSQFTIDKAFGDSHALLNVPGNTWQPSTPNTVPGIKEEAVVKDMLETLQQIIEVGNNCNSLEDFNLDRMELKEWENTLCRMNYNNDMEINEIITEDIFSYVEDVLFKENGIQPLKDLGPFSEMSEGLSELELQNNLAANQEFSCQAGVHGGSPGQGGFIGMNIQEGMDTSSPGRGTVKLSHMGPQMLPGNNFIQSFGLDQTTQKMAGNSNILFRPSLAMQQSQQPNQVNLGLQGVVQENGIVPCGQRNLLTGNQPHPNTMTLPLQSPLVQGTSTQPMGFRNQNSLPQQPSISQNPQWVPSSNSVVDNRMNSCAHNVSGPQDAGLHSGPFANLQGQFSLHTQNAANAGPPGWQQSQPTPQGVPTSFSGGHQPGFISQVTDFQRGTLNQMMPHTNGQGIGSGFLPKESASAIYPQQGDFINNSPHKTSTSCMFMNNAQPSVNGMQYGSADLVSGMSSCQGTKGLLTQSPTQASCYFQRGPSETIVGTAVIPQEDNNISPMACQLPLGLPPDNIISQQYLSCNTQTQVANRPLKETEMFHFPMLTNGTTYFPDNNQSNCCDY
# AhR (Danio rerio, UniProt Q9YGV3), sequence (Q64FF9 1-503 partner): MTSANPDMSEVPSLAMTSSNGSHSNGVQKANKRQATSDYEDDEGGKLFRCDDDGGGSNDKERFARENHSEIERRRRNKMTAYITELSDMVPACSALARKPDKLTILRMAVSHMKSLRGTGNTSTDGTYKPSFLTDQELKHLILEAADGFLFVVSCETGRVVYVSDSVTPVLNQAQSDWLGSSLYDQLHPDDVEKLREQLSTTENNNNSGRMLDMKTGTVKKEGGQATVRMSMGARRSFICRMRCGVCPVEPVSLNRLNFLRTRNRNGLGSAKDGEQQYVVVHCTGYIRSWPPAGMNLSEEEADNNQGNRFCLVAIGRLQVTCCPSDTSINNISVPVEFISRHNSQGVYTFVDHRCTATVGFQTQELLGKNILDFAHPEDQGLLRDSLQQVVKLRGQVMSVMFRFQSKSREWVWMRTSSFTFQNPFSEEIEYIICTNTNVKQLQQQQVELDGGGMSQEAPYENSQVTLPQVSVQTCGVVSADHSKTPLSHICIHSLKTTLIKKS
# Method: All experiments were conducted as described previously unless stated otherwise. COS-7 cells were seeded onto 24-well plate until approximately 65% confluency. The cells were transfected with ARNT-1c expression plasmid (50 ng), AhR2 expression plasmid (5 ng), Cyp1a-firefly luciferase reporter plasmid (20 ng) and pRL-TK Renilla luciferase plasmid (2 ng) using Lipofectamine 3000 (Thermo Fisher Scientific) according to the manufacturer’s protocol. The pEGFP-C1 plasmid (Clontech, Tempe, AZ, USA) was used to assess the transfection efficiency. At 5 h post transfection, serially diluted test compounds at indicated concentration were added to the cells. Simultaneously, TCDD (10 nM) or indicated compounds with the highest concentration were added in the control wells. At 1 h post compound treatment, TCDD (10 nM) was added to all wells except the control wells. At 18 h post TCDD treatment, the medium was removed, and the cells washed with Dulbecco’s phosphate buffered saline (DPBS) and harvested using 1x Passive Lysis Buffer (Promega, Madison, WI, USA). The dual luciferase assay was carried out using a Dual-Luciferase Reporter Assay System (Promega, Madison, WI, USA) and an Orion L Microplate Luminometer (Titertek Berthold, Pforzheim, BW, Germany) as per manufacturer’s protocol. The relative light unit (RLU) values were normalized and expressed as toxic induced ratio (TIR). IC50 was determined using Prism 9.0 (GraphPad Software).
# [4] = system: AhR nuclear translocation in MC38 cells; assay: Kynurenine-induced AhR nuclear translocation (Western blot); assay type: cell-based; details: kynurenine-treated MC38 cells, 24 h
# Method: Cells were harvested and washed twice in cold PBS. Cytoplasmic and nuclear protein were isolated by NE-PER^TM (Thermo Fisher Scientific, Waltham, MA, USA). The procedure was completed according to the kit instructions.
# For the extraction of total protein, cells were treated with 7k for 24 h in a CO2 incubator at 37 °C and washed twice with phosphate-buffered saline (PBS). Cell pellets were lysed using radioimmunoprecipitation assay (RIPA) buffer (Thermo Fisher Scientific) containing a protease and phosphatase inhibitor cocktail kit (Thermo Fisher Scientific). The lysed cells were briefly vortexed at intervals and subsequently centrifuged at 13,000× g at 4 °C. The protein sample was quantified with the bicinchoninic acid (BCA) protein assay kit (Thermo Fisher Scientific).
# Equal amounts of proteins were loaded onto 10% sodium dodecyl sulfate polyacrylamide gel electrophoresis and transferred onto PVDF membranes (Millipore, Billerica, MA, USA). The membrane was blocked with 5% skim milk in Tris-buffered saline (TBS) containing Tween-20 (TBS-T) for an hour and probed with the respective primary antibodies in 5% BSA overnight at 4 °C. Following incubation, the membrane was probed with horseradish peroxidase (HRP)-conjugated secondary antibodies for an hour at room temperature. […]
# [5] = system: normal cells (CHO, L929, CCD-18Co); assay: Cell viability assay (CCK-8), normal cells; assay type: cell-based; details: 24 h, 7k: CHO, SR-1: CCD-18Co
# Method: Chinese hamster ovary CHO cells, mouse fibroblast L929 cells, normal colon CCD18-Co cells, monkey kidney fibroblast COS-7 cells, colorectal cancer cells including HCT-116, RKO, SW480, SW620, CT26, and MC38 cells were purchased from ATCC (American Type Culture Collection). CHO, L929, Cos-7, and all cancer cells were maintained in RPMI 1640 or DMEM supplemented with 10% FBS (Gibco FBS; Thermo Fisher Scientific, Hanover Park, IL, USA) and 1% streptomycin/penicillin. CCD18-Co cells were cultured in high-glucose Dulbecco modified Eagle medium containing 10% FBS and 1% streptomycin/penicillin. All cells were grown in 5% CO2 at 37 °C. Mycoplasma testing was regularly performed every month using the BioMycoX Mycoplasma PCR Detection Kit (CellSafe, Yongin, Republic of Korea).
# Cell viability was analyzed using a Cell Counting Kit-8 (Dojindo molecular technologies, Rockville, MD, USA). Cells were seeded in 96-well plates and treated with different concentrations of 7k. At the indicated time points, CCK-8 (10 μL/well) reagents were added to the cells, followed by further incubation at 37 °C for 90 min. The absorbance at 450 nm was measured using a plate reader (BioTek instruments, Winooski, VT, USA).
smiles,measurement,setting,value
"CC(C)n1cc2nc(-c3cc(F)cc(F)c3)nc(NCCc3c[nH]c4ccccc34)c2n1 [Compound 7k, N-(2-(1H-indol-3-yl)ethyl)-5-(3,5-difluorophenyl)-2-isopropyl-2H-pyrazolo [4,3-d]pyrimidin-7-amine]","AhR antagonistic activity in zebrafish, in words","[1]; Tg(cyp1a:egfp) zebrafish, EGFP readout",significant antagonistic activity against AhR
same,AhR Antagonist Activity at 100 nM,"[1]; extent of GFP reduction in Tg(cyp1a:egfp) zebrafish compared to the TCDD (2 nM) control, 100 nM, 48 h",+++++
same,PD-1 expression,[2],reduced PD-1 expression
same,IC50,[3],13.7 nM
same,AhR expression in the nucleus,[4],decreased AhR expression in the nucleus
same,cell viability of normal cells,[5],few antiproliferative effects
